System: Venturia inaequalis
Experiment: Venturia test (apple)/protective
Type: in vivo
Details: apple plants, protective spray, active compound concentration of 10 ppm, evaluation 12 days after inoculation
Procedure: Venturia test (apple)/protective
Solvent: 4.7 parts by weight of acetone Emulsifier: 0.3 parts by weight of alkylaryl polyglycol ether
(§1) To produce a suitable preparation of active compound, 1 part by weight of active compound is mixed with the stated amounts of solvent and emulsifier, and the concentrate is diluted with water to the desired concentration.
To test for protective activity, young plants are sprayed with the preparation of active compound to run-off point. After the spray coating has dried on, the plants are inoculated with an aqueous suspension of conidia of the causative organism of apple scab (Venturia inaequalis) and then remain in an incubation cupboard at 20° C. and 100% relative atmospheric humidity for 1 day.
The plants are then placed in a greenhouse at 20° C. and a relative atmospheric humidity of about 70%.
Evaluation is carried out 12 days after the inoculation. 0% means an efficacy corresponding to that of the control, 100% means that no infestation is observed.

SMILES | Efficacy in %, based on the untreated control [%]
N#Cc1nc2cc3c(cc2n1S(=O)(=O)c1cccs1)OC(F)(F)C(F)(F)O3 [drawing 353] | 87
CN(C)OS(=O)n1c(C#N)nc2cc3c(cc21)OC(F)(F)C(F)(F)O3 (stereo not drawn) | 43
CN(C)OS(=O)n1c(C#N)nc2cc3c(cc21)OC(F)(F)O3 (stereo not drawn) [drawing 350] | 0
Cc1noc(C)c1S(=O)(=O)n1c(C#N)nc2cc3c(cc21)OC(F)(F)C(F)(F)O3 [drawing 352] | 58
Cc1noc(C)c1S(=O)(=O)n1c(C#N)nc2cc3c(cc21)OC(F)(F)O3 [drawing 351] | 81
CN(C)S(=O)(=O)n1c(C#N)nc2cc3c(cc21)OC(F)(F)C(F)(F)O3 [comparison substance (A), 2-Cyano-1-dimethylaminosulphonyl-6,6,7,7-tetrafluoro-[1,4]dioxino[2,3-f]benzimidazole] | 43

System: Phytophthora infestans
Experiment: whole plant or invertebrate
Type: in vivo
Details: in Solanum lycopersicum, 72 h, read-out: Efficacy in %, based on the untreated control

SMILES | pest or weed control at 100 ppm [%]
COC(=O)c1sccc1S(=O)(=O)n1c(C#N)nc2cc3c(cc21)OC(F)(F)C(F)(F)O3 | 82
Cc1oncc1OS(=O)n1c(C#N)nc2cc3c(cc21)OC(F)(F)O3 (stereo not drawn) [drawing 362] | 96
Cc1nn(C)c(Cl)c1S(=O)(=O)n1c(C#N)nc2cc3c(cc21)OC(F)(F)C(F)(F)O3 [drawing 359] | 94
COC(=O)c1csc(OS(=O)n2c(C#N)nc3cc4c(cc32)OC(F)(F)O4)c1C (stereo not drawn) | 97
Cc1noc(C)c1S(=O)(=O)n1c(C#N)nc2cc3c(cc21)OC(F)(F)C(F)(F)O3 [drawing 355] | 97
N#Cc1nc2cc3c(cc2n1S(=O)Oc1cccs1)OC(F)(F)O3 (stereo not drawn) | 94
Cc1nn(C)c(Cl)c1S(=O)(=O)n1c(C#N)nc2cc3c(cc21)OC(F)(F)O3 | 94
N#Cc1nc2cc3c(cc2n1S(=O)(=O)c1cccs1)OC(F)(F)C(F)(F)O3 [drawing 356] | 94
Cc1oncc1OS(=O)n1c(C#N)nc2cc3c(cc21)OC(F)(F)C(F)(F)O3 (stereo not drawn) [drawing 358] | 64
Cc1noc(C)c1OS(=O)n1c(C#N)nc2cc3c(cc21)OC(F)(F)C(F)(F)O3 (stereo not drawn) [drawing 365] | 97
Cc1noc(C)c1S(=O)(=O)n1c(C#N)nc2c(Br)cc(C(F)(F)F)cc21 [drawing 363] | 74
Cc1noc(C)c1S(=O)(=O)n1c(C#N)nc2cc3c(cc21)OC(F)(F)O3 [drawing 354] | 100

System: Plasmopara viticola
Experiment: Plasmopara test (vines)/protective
Type: in vivo
Details: Plasmopara viticola, 144 h, protective spray, active compound concentration of 100 ppm, evaluation 6 days after inoculation, read-out: Efficacy in %, based on the untreated control
Procedure: Plasmopara test (vines)/protective
Solvent: 4.7 parts by weight of acetone Emulsifier: 0.3 parts by weight of alkyl-aryl polyglycol ether
as §1
To test for protective activity, young plants are sprayed with the preparation of active compound to run-off point. After the spray coating has dried on, the plants are inoculated with an aqueous suspension of spores of Plasmopara viticola and then remain in a humidity chamber at 20-22° C. and 100% relative atmospheric humidity for 1 day. The plants are subsequently placed in a greenhouse at 21° C. and 90% atmospheric humidity for […]. The plants are then moistened and placed in a humidity chamber for 1 day.
Evaluation is carried out 6 days after the inoculation. 0% means an efficacy corresponding to that of the control, whereas an efficacy of 100% means that no infestation is observed.

SMILES | pest or weed control at 100 ppm [%]
N#Cc1nc2cc3c(cc2n1S(=O)Oc1cccs1)OC(F)(F)C(F)(F)O3 (stereo not drawn) | 80
Cc1noc(C)c1OS(=O)n1c(C#N)nc2cc3c(cc21)OC(F)(F)C(F)(F)O3 (stereo not drawn) [drawing 367] | 100
Cc1noc(C)c1S(=O)(=O)n1c(C#N)nc2c(Br)cc(C(F)(F)F)cc21 [drawing 373] | 95
Cc1nn(C)c(Cl)c1S(=O)(=O)n1c(C#N)nc2cc3c(cc21)OC(F)(F)C(F)(F)O3 [drawing 371] | 74
COC(=O)c1sccc1OS(=O)n1c(C#N)nc2cc3c(cc21)OC(F)(F)C(F)(F)O3 (stereo not drawn) | 100
Cc1oncc1OS(=O)n1c(C#N)nc2cc3c(cc21)OC(F)(F)O3 (stereo not drawn) [drawing 372] | 100
Cc1oncc1OS(=O)n1c(C#N)nc2cc3c(cc21)OC(F)(F)C(F)(F)O3 (stereo not drawn) [drawing 370] | 100
Cc1noc(C)c1OS(=O)N1C(C#N)=NC2C=C3OC(F)(F)OC3=CC21 (stereo not drawn) | 100

Same assay, conditions: protective spray, active compound concentration of 100 ppm, evaluation 6 days after inoculation

SMILES | Efficacy in %, based on the untreated control [%]
Cc1noc(C)c1OS(=O)n1c(C#N)nc2cc3c(cc21)OC(F)(F)C(F)(F)O3 (stereo not drawn) [drawing 374] | 100

From patent US20020026059A1 (priority 1995, published 2002)
